According to patent US9181260B2, “Crystalline form of sitagliptin sulfate” (MOEHS IBERICA S.L., priority 2012, dated 2015):
Where a name gives a salt, the structure may show the parent alone. Read-outs that look alike come from different tables or passages of the source.

What was measured:
Format in all cases: physicochemical
[1] = Hygroscopicity study, European Pharmacopeia Ed. 6.0 Section 5.11 (degree of hydration at 80% and 97% RH, 25° C.); conditions: for Higroscopicity RH 80% / Higroscopicity RH 97%: water content by weight difference
Description: International application WO 2009/085990 A2 describes the production of an anhydrous crystalline form of sitagliptin sulfate salt and its characterization by means of DSC (Differential Scanning calorimetry), TGA (Thermal Gravimetric Analysis) and XRPD (X-Ray Powder Diffraction). However and in the hands of the inventors of the present application, said crystalline form is hygroscopic under the conditions of the European Pharmacopeia Ed. 6.0 Section 5.11 (24 hours at 80% RH and 25° C.), readily reaching a water proportion corresponding to a dihydrate form. […] A stability study of the M form of sitagliptin sulfate was performed under conditions of the European Pharmacopeia Ed. 6.0 Section 5.11, i.e., the degree of hydration was measured at 80% relative humidity (RH) at a temperature of 25° C. Additionally, the degree of hydration was also measured at 97% relative humidity (RH) at a temperature of 25° C. The results are shown in Table 1, wherein the higroscopicity (expressed as the water content by means of weight difference, following the procedure described in European Pharmacopeia Ed. 6.0 Section 5.11) of samples of 1 g of sitagliptin sulfate polymorph M of the present invention after storage at 1 day, 3 days, 7 days, 14 days and 21 days at 80% RH and 97% RH, respectively. […] 6.0 Section 5.11, i.e., the degree of hydration is less than 0.2%. The crystalline form of sitagliptin sulfate after 21 days at a relative humidity of 80% and 97%, respectively, were analyzed by means of X-ray diffraction.

[2] = Crystalline form after grinding
Description: 100.0 g (245.5 mmoles) of sitagliptin base were dissolved at 20-22° C. in a mixture of 750 ml of absolute ethanol and 120 ml of water. A previously prepared solution of 98.1% H2SO4 ([…], 240.9 mmoles) in ethanol (760 ml) was slowly added to said solution, maintaining the temperature between 20-25° C. When approximately ⅔ of the total volume of the acid solution had been added, the addition was stopped and 1.0 g (1.978 mmoles) of crystalline form M of sitagliptin sulfate obtained by means of any of the processes described in Examples 1 and 3-5 was added to the reaction mixture. The presence of a white precipitate that remains undissolved was immediately noticed. The addition of the acid solution was continued and once this ended, the mixture obtained was maintained at a temperature of 20-25° C. for 4 hours. The solid obtained was filtered and washed in the filter with absolute ethanol (2×100 ml). The wet product was dried in a vacuum oven at 40° C. for 22 hours to yield 97.1 g (192.1 mmoles) of a white crystalline solid (77.6%). XRPDs both of the wet product (FIG. 3) and of the dry product (FIG. 2) which correspond with form M of sitagliptin sulfate were performed. […] (FIG. 8). The water content determined by TGA (FIG. 13) is 0.02%.

[3] = Water content determined by thermal gravimetric analysis (TGA)
Description: TGA analyses were performed using a Mettler/Toledo TGA/SDTA851e thermobalance. Parameters: heating range from 30 to 300° C. with a 10° C./min ramp and a 50 ml/min dry N2 flow.

[4] = Accelerated stability study (40° C.±2° C., 75%±5% RH), water content by Karl-Fisher and XRPD; conditions: for Water content: Karl-Fisher
Description: Water Content (Karl-Fisher Method) The analysis is performed in a Mettler Toledo W30. It is determined in 0.2 g of sample using Hydranal medium K as solvent and Hydranal composite 5K as titrant. Accelerated stability study of the M form of sitagliptin sulfate was performed under the following conditions: temperature of 40° C.±2° C. and relative humidity (RH) of 75%±5%. The water content of the sample was determined at the beginning of the study, at 3 months and at 6 months, by means of Karl-Fisher. The crystalline form of sitagliptin sulfate after 6 months was analyzed by means of X-ray diffraction.

[5] = 80% RH and 97% RH, 25° C., up to 21 days

For N[C@@H](CC(=O)N1CCn2c(nnc2C(F)(F)F)C1)Cc1cc(F)c(F)cc1F.O=S(=O)(O)O [reference compound], the “hygroscopicity (in words)” value ([1]; 24 hours at 80% RH and 25° C., in the hands of the inventors) was “hygroscopic”.

In the case of N[C@@H](CC(=O)N1CCn2c(nnc2C(F)(F)F)C1)Cc1cc(F)c(F)cc1F [form M, addition salt of sitagliptin with sulfuric acid (1:1)], the “Higroscopicity RH 80%” value ([1]; 25° C., 80% RH, 1 day) is reported as 0.07%, the “Higroscopicity RH 80%” value ([1]; 25° C., 80% RH, 3 days) is reported as 0.10% and the “Higroscopicity RH 80%” value ([1]; 25° C., 80% RH, 7 days) is reported as 0.12%. The “Higroscopicity RH 80%” value ([1]; 25° C., 80% RH, 14 days) was 0.10%, the “Higroscopicity RH 80%” value ([1]; 25° C., 80% RH, 21 days) was 0.07% and the “Higroscopicity RH 97%” value ([1]; 25° C., 97% RH, 1 day) was 0.05%. The “Higroscopicity RH 97%” value ([1]; 25° C., 97% RH, 3 days) was 0.08%, the “Higroscopicity RH 97%” value ([1]; 25° C., 97% RH, 7 days) was 0.06% and the “Higroscopicity RH 97%” value ([1]; 25° C., 97% RH, 14 days) was 0.06%. For the same compound, the “Higroscopicity RH 97%” value ([1]; 25° C., 97% RH, 21 days) was 0.07%, the degree of hydration [1, 5] was “less than 0.2%” and the “hygroscopicity (in words)” value [1, 5] was “non-hygroscopic”. The degree of hydration ([1]; 80% relative humidity, 25° C.) was “less than 0.2%”, the “hygroscopicity (in words)” value ([1]; 80% relative humidity, 25° C., Ph. Eur. 6.0 Section 5.11) was “non-hygroscopic” and the “crystalline form by XRPD after storage” value ([1]; 21 days, 25° C., 80% RH) was “corresponding to form M of sitagliptin sulfate”. For the same compound, the “crystalline form by XRPD after storage” value ([1]; 21 days, 25° C., 97% RH) was “corresponding to form M of sitagliptin sulfate”, the “crystalline form of the ground product” value [2] was “still the crystalline form of sitagliptin sulfate object of the present invention” and the “water content determined by TGA” value [3] was “less than 0.05%”. The “water content determined by TGA” value ([3]; listed as Example 1) was 0.02%, the “water content determined by TGA” value ([3]; listed as Example 2) was 0.02% and the “water content determined by TGA” value ([3]; listed as Example 3) was 0.03%. The “water content determined by TGA” value ([3]; listed as Example 4) was 0.01%, the “water content determined by TGA” value ([3]; listed as Example 5) was 0.004% and the Water content ([4]; 3 months at 40° C.±2° C., 75%±5% RH) was 0.09%. For the same compound, the Water content ([4]; 6 months at 40° C.±2° C., 75%±5% RH) was 0.01%, the “crystalline form by XRPD after storage” value ([4]; 6 months, 40° C.±2° C., 75%±5% RH) was “corresponding to form M of sitagliptin sulfate” and the Water content ([4]; Initial) was 0.09%.
